The results in this text go back to patent US20210395239A1 (Hoffmann-La Roche Inc., priority 2018, published 2021).

For this experiment, the target named is T1, human TLR8 (Homo sapiens, UniProt Q9NR97).
T1 construct: host or cells: HEK293 (HEK-Blue hTLR8)
T1 sequence (Q9NR97 27-1041): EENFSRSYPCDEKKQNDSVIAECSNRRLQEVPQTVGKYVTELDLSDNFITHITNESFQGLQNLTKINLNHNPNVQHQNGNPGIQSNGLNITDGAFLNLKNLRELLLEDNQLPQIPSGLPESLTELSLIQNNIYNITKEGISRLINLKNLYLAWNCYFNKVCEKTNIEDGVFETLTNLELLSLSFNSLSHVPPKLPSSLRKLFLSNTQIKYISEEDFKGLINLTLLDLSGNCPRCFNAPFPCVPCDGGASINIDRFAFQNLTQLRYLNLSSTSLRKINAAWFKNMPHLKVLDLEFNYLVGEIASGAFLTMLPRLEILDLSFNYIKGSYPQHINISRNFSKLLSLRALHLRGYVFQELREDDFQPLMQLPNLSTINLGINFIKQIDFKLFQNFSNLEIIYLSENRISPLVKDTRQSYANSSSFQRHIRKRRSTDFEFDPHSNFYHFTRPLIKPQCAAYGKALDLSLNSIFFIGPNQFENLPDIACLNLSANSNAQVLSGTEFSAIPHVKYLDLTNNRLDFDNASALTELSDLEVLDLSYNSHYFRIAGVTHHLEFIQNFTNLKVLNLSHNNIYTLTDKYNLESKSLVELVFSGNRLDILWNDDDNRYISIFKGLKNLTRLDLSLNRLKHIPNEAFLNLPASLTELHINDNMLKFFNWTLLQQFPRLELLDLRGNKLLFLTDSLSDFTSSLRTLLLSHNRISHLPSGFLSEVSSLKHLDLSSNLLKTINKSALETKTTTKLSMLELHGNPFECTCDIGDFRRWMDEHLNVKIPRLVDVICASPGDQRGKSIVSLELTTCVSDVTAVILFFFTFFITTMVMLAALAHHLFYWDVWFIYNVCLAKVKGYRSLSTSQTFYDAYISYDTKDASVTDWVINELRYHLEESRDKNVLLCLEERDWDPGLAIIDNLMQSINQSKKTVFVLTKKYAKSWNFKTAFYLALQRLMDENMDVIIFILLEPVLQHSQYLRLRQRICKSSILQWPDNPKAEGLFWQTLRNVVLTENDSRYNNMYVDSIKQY
Kind of experiment: HEK293-Blue-hTLR-8 cells assay (SEAP reporter, R848 stimulation). The class given is cell-based. To be noted: HEK293-Blue-hTLR8 cells, R848, 20 hrs; read-out: HEK/hTLR8 IC50. An excerpt: HEK293-Blue-hTLR-8 Cells Assay:
A stable HEK293-Blue-hTLR-8 cell line was purchased from InvivoGen (Cat. #: hkb-ht1r8, San Diego, Calif., USA). These cells were originally designed for studying the stimulation of human TLR8 by monitoring the activation of NF-κB. A SEAP (secreted embryonic alkaline phosphatase) reporter gene was placed under the control of the IFN-β minimal promoter fused to five NF-κB and AP-1-binding sites. The SEAP was induced by activating NF-κB and AP-1 via stimulating HEK-Blue hTLR8 cells with TLR8 ligands. Therefore the reporter expression was declined by TLR8 antagonist under the stimulation of a ligand, such as R848, for incubation of 20 hrs. The cell culture supernatant SEAP reporter activity was determined using QUANTI-Blue™ kit (Cat. #: rep-qb1, Invivogen, San Diego, Ca, USA) at a wavelength of 640 nm, a detection medium that turns purple or blue in the presence of alkaline phosphatase.
HEK293-Blue-hTLR8 cells were incubated at a density of 250,000˜450,000 cells/mL in a volume of 170 μL in a 96-well plate in Dulbecco's Modified Eagle's medium (DMEM) containing 4.5 g/L glucose, 50 U/mL penicillin, […], […], 2 mM L-glutamine, 10% (v/v) heat-inactivated fetal bovine serum with addition of 20 μL test compound in a serial dilution in the presence of final DMSO at 1% and 10 μL of 60 uM R848 in above DMEM, perform incubation under 37° C. in a CO2 incubator for 20 hrs. Then 20 μL of the supernatant from each well was incubated with 180 μL Quanti-blue substrate solution at 37° C. for 2 hrs and the absorbance was read at 620˜655 nm using a spectrophotometer. The signaling pathway that TLR8 activation leads to downstream NF-κB activation has been widely accepted, and therefore similar reporter assay was modified for evaluating TLR8 antagonist.
For `Cc1cc(N2C[C@@H](N)[C@](C)(O)C2)nc(N2CCN(C[C@H]3CN(c4ccc(C#N)c5nccnc45)C[C@@H](C)O3)CC2)n1` [Example 125, 8-[(2S,6R)-2-[[4-[4-[(3R,4R)-4-amino-3-hydroxy-3-methyl-pyrrolidin-1-yl]-6-methyl-pyrimidin-2-yl]piperazin-1-yl]methyl]-6-methyl-morpholin-4-yl]quinoxaline-5-carbonitrile], the IC50 was found to be 2 nM.

`[2H]c1ccc2c(N3C[C@H](CN4CCN(c5ccc(N6C[C@@H]7C[C@H]6CN7)nc5)CC4)O[C@H](C)C3)ccc(C#N)c2n1` [Example 151, 2-deuterio-5-[(2S,6R)-2-[[4-[6-[(1S,4S)-2,5-diazabicyclo[2.2.1]heptan-2-yl]-3-pyridyl]piperazin-1-yl]methyl]-6-methyl-morpholin-4-yl]quinoline-8-carbonitrile]: the IC50 worked out at 23 nM.

With `Cc1cc(N2CC(N)C2)nc(N2CCN(C[C@H]3CN(c4ccc(C#N)c5nccnc45)C[C@@H](C)O3)CC2)n1` [Example 123, 8-[(2S,6R)-2-[[4-[4-(3-aminoazetidin-1-yl)-6-methyl-pyrimidin-2-yl]piperazin-1-yl]methyl]-6-methyl-morpholin-4-yl]quinoxaline-5-carbonitrile], the IC50 came to 1 nM.

As for `CO[C@H]1CN(c2cc(C)nc(N3CCN(C[C@H]4CN(c5ccc(C#N)c6nccnc56)C[C@@H](C)O4)CC3)n2)C[C@H]1N` [Example 122, 8-[(2S,6R)-2-[[4-[4-[(3R,4S)-3-amino-4-methoxy-pyrrolidin-1-yl]-6-methyl-pyrimidin-2-yl]piperazin-1-yl]methyl]-6-methyl-morpholin-4-yl]quinoxaline-5-carbonitrile], the IC50 amounted to 1 nM.

Consider `C[C@@H]1CN(c2ccc(C#N)c3ncccc23)C[C@H](CN2CCN(c3ccnc(N4C[C@H]5NCCO[C@@H]5C4)n3)CC2)O1` [Example 103, 5-[(2S,6R)-2-[[4-[2-[(4aR,7aR)-3,4,4a,5,7,7a-hexahydro-2H-pyrrolo[3,4-b][1,4]oxazin-6-yl]pyrimidin-4-yl]piperazin-1-yl]methyl]-6-methyl-morpholin-4-yl]quinoline-8-carbonitrile], for which the IC50 came to 1 nM.

Consider `Cc1ccc(N2C[C@H](CN3CCN(c4ccnc(N5CCN[C@@H](C)C5)n4)CC3)O[C@H](C)C2)c2nccnc12` [Example 127, (2R,6S)-2-methyl-6-[[4-[2-[(3S)-3-methylpiperazin-1-yl]pyrimidin-4-yl]piperazin-1-yl]methyl]-4-(8-methylquinoxalin-5-yl)morpholine], for which the IC50 was 9 nM.

Take `Cc1ccc(N2C[C@H](CN3CCN(c4ccnc(N5CC6(CNCCO6)C5)n4)CC3)O[C@H](C)C2)c2nccnc12` [Example 126, 2-[4-[4-[[(2S,6R)-6-methyl-4-(8-methylquinoxalin-5-yl)morpholin-2-yl]methyl]piperazin-1-yl]pyrimidin-2-yl]-5-oxa-2,8-diazaspiro[3.5]nonane]: the IC50 came out at 6 nM.

For the molecule `[2H]c1ccc2c(N3C[C@H](CN4CCN(c5ccc(N6C[C@H]7C[C@@H]6CN7)nc5)CC4)O[C@H](C)C3)ccc(C#N)c2n1` [Example 153, 2-deuterio-5-[(2S,6R)-2-[[4-[6-[(1R,4R)-2,5-diazabicyclo[2.2.1]heptan-2-yl]-3-pyridyl]piperazin-1-yl]methyl]-6-methyl-morpholin-4-yl]quinoline-8-carbonitrile], the IC50 came out at 19 nM.

Consider `[2H]c1ccc2c(N3C[C@H](CN4CCN(c5ncc(N6CC(C)(N)C6)cc5C)CC4)O[C@H](C)C3)ccc(C#N)c2n1` [Example 139, 5-[(2S,6R)-2-[[4-[5-(3-amino-3-methyl-azetidin-1-yl)-3-methyl-2-pyridyl]piperazin-1-yl]methyl]-6-methyl-morpholin-4-yl]-2-deuterio-quinoline-8-carbonitrile], for which the IC50 amounted to 13 nM.

On to `[2H]c1ccc2c(N3C[C@H](CN4CCN(c5nc(C)cc(N6C[C@@H](N)[C@H](OC)C6)n5)CC4)O[C@H](C)C3)ccc(C#N)c2n1` [Example 144, 5-[(2S,6R)-2-[[4-[4-[(3R,4R)-3-amino-4-methoxy-pyrrolidin-1-yl]-6-methyl-pyrimidin-2-yl]piperazin-1-yl]methyl]-6-methyl-morpholin-4-yl]-2-deuterio-quinoline-8-carbonitrile], for which the IC50 was 1 nM.

`C[C@@H]1CN(c2ccc(C#N)c3ncccc23)C[C@H](CN2CCN(c3ccnc(N4C[C@@H](N)[C@@H](F)C4)n3)CC2)O1` [Example 101, 5-[(2S,6R)-2-[[4-[2-[(3R,4S)-3-amino-4-fluoro-pyrrolidin-1-yl]pyrimidin-4-yl]piperazin-1-yl]methyl]-6-methyl-morpholin-4-yl]quinoline-8-carbonitrile]: the IC50 is 4 nM.

`[2H]c1ccc2c(N3C[C@H](CN4CCN(c5nc(OC)cc(N6CC(C)(N)C6)n5)CC4)O[C@H](C)C3)ccc(C#N)c2n1` [Example 131, 5-[(2S,6R)-2-[[4-[4-(3-amino-3-methyl-azetidin-1-yl)-6-methoxy-pyrimidin-2-yl]piperazin-1-yl]methyl]-6-methyl-morpholin-4-yl]-2-deuterio-quinoline-8-carbonitrile]: the IC50 was 4 nM.

Turning to `C[C@@H]1CN(c2ccc(C#N)c3nccnc23)C[C@H](CN2CCN(c3ccnc(N4C[C@@H](N)[C@@H](F)C4)n3)CC2)O1` [Example 108, 8-[(2S,6R)-2-[[4-[2-[(3R,4S)-3-amino-4-fluoro-pyrrolidin-1-yl]pyrimidin-4-yl]piperazin-1-yl]methyl]-6-methyl-morpholin-4-yl]quinoxaline-5-carbonitrile], the IC50 was determined as 1 nM.

As for `[2H]c1ccc2c(N3C[C@H](CN4CCN(c5ccc(N6CC(C)(N)C6)nc5C)CC4)O[C@H](C)C3)ccc(C#N)c2n1` [Example 137, 5-[(2S,6R)-2-[[4-[6-(3-amino-3-methyl-azetidin-1-yl)-2-methyl-3-pyridyl]piperazin-1-yl]methyl]-6-methyl-morpholin-4-yl]-2-deuterio-quinoline-8-carbonitrile], the IC50 stood at 11 nM.

As to `[2H]c1ccc2c(N3C[C@H](CN4CC(c5cccc(N6CC(C)(N)C6)n5)C4)O[C@H](C)C3)ccc(C#N)c2n1` [Example 159, 5-[(2S,6R)-2-[[3-[6-(3-amino-3-methyl-azetidin-1-yl)-2-pyridyl]azetidin-1-yl]methyl]-6-methyl-morpholin-4-yl]-2-deuterio-quinoline-8-carbonitrile], the IC50 was 52 nM.

`C[C@@H]1CN(c2ccc(C#N)c3ncccc23)C[C@H](CN2CCN(c3ccc(CN)cc3)CC2)O1` [Example 5, 5-[(2S,6R)-2-[[4-[4-(aminomethyl)phenyl]piperazin-1-yl]methyl]-6-methyl-morpholin-4-yl]quinoline-8-carbonitrile]: the IC50 was 33 nM.

For `COC1CN(c2nccc(N3CCN(C[C@H]4CN(c5ccc(C#N)c6ncccc56)C[C@@H](C)O4)CC3)n2)CC1N` (stereo in doubt) [Example 93, 5-[(2S,6R)-2-[[4-[2-[(3R,4S)-3-amino-4-methoxy-pyrrolidin-1-yl]pyrimidin-4-yl]piperazin-1-yl]methyl]-6-methyl-morpholin-4-yl]quinoline-8-carbonitrile], the IC50 came to 3 nM.
